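Exposure lasted 48 hours, with cells grown in 96-well plates and compounds tested at five concentrations. GI50 is the concentration that inhibits growth by half. TGI denotes the concentration required for complete inhibition of growth.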
What was measured:
Assay in all cases: inhibition of tumour cell growth, NCI panel, 48 h
T-47D breast = test system: T-47D breast
MDA-MB-435 = test system: MDA-MB-435
HCT-15 colon = test system: HCT-15 colon
A549 NSCLC = test system: A549 NSCLC
NCI-H522 lung = test system: NCI-H522 lung
NCI-H23 lung = test system: NCI-H23 lung
SK-OV-3 ovarian = test system: SK-OV-3 ovarian
LOX IMVI melanoma = test system: LOX IMVI melanoma
EKVX NSCLC = test system: EKVX NSCLC
IGROV1 ovarian = test system: IGROV1 ovarian
SK-MEL-5 melanoma = test system: SK-MEL-5 melanoma
786-0 renal = test system: 786-0 renal
UACC-62 melanoma = test system: UACC-62 melanoma
K-562 leukemia = test system: K-562 leukemia
A498 renal = test system: A498 renal
UACC-257 melanoma = test system: UACC-257 melanoma
M14 melanoma = test system: M14 melanoma
NCI-H460 lung = test system: NCI-H460 lung
MOLT-4 leukemia = test system: MOLT-4 leukemia
HS 578T breast = test system: HS 578T breast
MCF7 breast = test system: MCF7 breast
HL-60(TB) leukemia = test system: HL-60(TB) leukemia
MDA-MB-231 breast = test system: MDA-MB-231 breast
CCRF-CEM leukemia = test system: CCRF-CEM leukemia
UO-31 renal = test system: UO-31 renal
NCI/ADR-RES ovarian = test system: NCI/ADR-RES ovarian
BT-549 breast = test system: BT-549 breast
OVCAR-5 ovarian = test system: OVCAR-5 ovarian
SF-539 CNS = test system: SF-539 CNS
OVCAR-3 ovarian = test system: OVCAR-3 ovarian
HOP-92 NSCLC = test system: HOP-92 NSCLC
KM12 colon = test system: KM12 colon
SNB-75 CNS = test system: SNB-75 CNS
RPMI-8226 leukemia = test system: RPMI-8226 leukemia
SN12C renal = test system: SN12C renal
HCT-116 colon = test system: HCT-116 colon
PC-3 prostate = test system: PC-3 prostate
ACHN renal = test system: ACHN renal
SR leukemia = test system: SR leukemia
OVCAR-4 ovarian = test system: OVCAR-4 ovarian
COLO 205 colon = test system: COLO 205 colon
DU-145 prostate = test system: DU-145 prostate
U251 CNS = test system: U251 CNS
TK-10 renal = test system: TK-10 renal
HT29 colon = test system: HT29 colon
SK-MEL-2 melanoma = test system: SK-MEL-2 melanoma
SNB-19 CNS = test system: SNB-19 CNS
HCC-2998 colon = test system: HCC-2998 colon
HOP-62 NSCLC = test system: HOP-62 NSCLC
NCI-H226 lung = test system: NCI-H226 lung
SF-295 CNS = test system: SF-295 CNS
SK-MEL-28 melanoma = test system: SK-MEL-28 melanoma
SF-268 CNS = test system: SF-268 CNS
CAKI-1 renal = test system: CAKI-1 renal
SW-620 colon = test system: SW-620 colon
RXF 393 renal = test system: RXF 393 renal

CC(C)Oc1ccc2cc(-c3nn(CC4CCNCC4)c4ncnc(N)c34)ccc2c1
GI50 (T-47D breast): 9.81 µM
TGI (T-47D breast): 24.9 µM
GI50 (MDA-MB-435): 3.86 µM
TGI (MDA-MB-435): 14.6 µM
GI50 (HCT-15 colon): 3.74 µM
TGI (HCT-15 colon): 15.8 µM
GI50 (A549 NSCLC): 14.5 µM
TGI (A549 NSCLC): 28.3 µM
GI50 (NCI-H522 lung): 11 µM
TGI (NCI-H522 lung): 25.4 µM
GI50 (NCI-H23 lung): 11.3 µM
TGI (NCI-H23 lung): 25.8 µM
GI50 (SK-OV-3 ovarian): 13.8 µM
TGI (SK-OV-3 ovarian): 27.9 µM
GI50 (LOX IMVI melanoma): 16.7 µM
TGI (LOX IMVI melanoma): 33.8 µM
GI50 (EKVX NSCLC): 13.6 µM
TGI (EKVX NSCLC): 26.9 µM
GI50 (IGROV1 ovarian): 11.1 µM
TGI (IGROV1 ovarian): 24.8 µM
GI50 (SK-MEL-5 melanoma): 11.6 µM
TGI (SK-MEL-5 melanoma): 23.8 µM
GI50 (786-0 renal): 11 µM
TGI (786-0 renal): 24.4 µM
GI50 (UACC-62 melanoma): 6.41 µM
TGI (UACC-62 melanoma): 20.4 µM
GI50 (K-562 leukemia): 2.04 µM
TGI (K-562 leukemia): 6.29 µM
GI50 (A498 renal): 14.2 µM
TGI (A498 renal): 28.2 µM
GI50 (UACC-257 melanoma): 1.95 µM
TGI (UACC-257 melanoma): 3.98 µM
GI50 (M14 melanoma): 2.05 µM
TGI (M14 melanoma): 4.68 µM
GI50 (NCI-H460 lung): 14.9 µM
TGI (NCI-H460 lung): 28.5 µM
GI50 (MOLT-4 leukemia): 1.97 µM
TGI (MOLT-4 leukemia): 5.95 µM
GI50 (HS 578T breast): 9.4 µM
TGI (HS 578T breast): 32.2 µM
GI50 (MCF7 breast): 5.59 µM
TGI (MCF7 breast): 20.1 µM
GI50 (HL-60(TB) leukemia): 6.45 µM
TGI (HL-60(TB) leukemia): 20.6 µM
GI50 (MDA-MB-231 breast): 3.05 µM
TGI (MDA-MB-231 breast): 9.94 µM
GI50 (CCRF-CEM leukemia): 3.98 µM
TGI (CCRF-CEM leukemia): 16.9 µM
GI50 (UO-31 renal): 4.15 µM
TGI (UO-31 renal): 18.9 µM
GI50 (NCI/ADR-RES ovarian): 6.23 µM
TGI (NCI/ADR-RES ovarian): 19.6 µM
GI50 (BT-549 breast): 9.6 µM
TGI (BT-549 breast): 22 µM
GI50 (OVCAR-5 ovarian): 11.9 µM
TGI (OVCAR-5 ovarian): 24.1 µM
GI50 (SF-539 CNS): 12.3 µM
TGI (SF-539 CNS): 24.7 µM
GI50 (OVCAR-3 ovarian): 12.5 µM
TGI (OVCAR-3 ovarian): 25 µM
GI50 (HOP-92 NSCLC): 6.37 µM
TGI (HOP-92 NSCLC): 20.8 µM
GI50 (KM12 colon): 12.6 µM
TGI (KM12 colon): 26.4 µM
GI50 (SNB-75 CNS): 1.09 µM
TGI (SNB-75 CNS): 15.2 µM
GI50 (RPMI-8226 leukemia): 3.1 µM
TGI (RPMI-8226 leukemia): 12.9 µM
GI50 (SN12C renal): 11.8 µM
TGI (SN12C renal): 24.8 µM
GI50 (HCT-116 colon): 6.78 µM
TGI (HCT-116 colon): 19.8 µM
GI50 (PC-3 prostate): 12 µM
TGI (PC-3 prostate): 25.8 µM
GI50 (ACHN renal): 10.5 µM
TGI (ACHN renal): 22.2 µM
GI50 (SR leukemia): 1.53 µM
TGI (SR leukemia): 4.44 µM
GI50 (OVCAR-4 ovarian): 5.24 µM
TGI (OVCAR-4 ovarian): 19.5 µM
GI50 (COLO 205 colon): 3.39 µM
TGI (COLO 205 colon): 13.2 µM
GI50 (DU-145 prostate): 14.9 µM
TGI (DU-145 prostate): 28.4 µM
GI50 (U251 CNS): 9.02 µM
TGI (U251 CNS): 21.7 µM
GI50 (TK-10 renal): 12.8 µM
TGI (TK-10 renal): 25.7 µM
GI50 (HT29 colon): 2.78 µM
TGI (HT29 colon): 12.2 µM
GI50 (SK-MEL-2 melanoma): 10.8 µM
TGI (SK-MEL-2 melanoma): 24.4 µM
GI50 (SNB-19 CNS): 12.7 µM
TGI (SNB-19 CNS): 26 µM
GI50 (HCC-2998 colon): 9.53 µM
TGI (HCC-2998 colon): 24.6 µM
GI50 (HOP-62 NSCLC): 15.6 µM
TGI (HOP-62 NSCLC): 31.4 µM
GI50 (NCI-H226 lung): 17.4 µM
TGI (NCI-H226 lung): 35.2 µM
GI50 (SF-295 CNS): 3.67 µM
TGI (SF-295 CNS): 14.2 µM
GI50 (SK-MEL-28 melanoma): 2.14 µM
TGI (SK-MEL-28 melanoma): 5.3 µM
GI50 (SF-268 CNS): 8.8 µM
TGI (SF-268 CNS): 23.5 µM
GI50 (CAKI-1 renal): 10.9 µM
TGI (CAKI-1 renal): 22.9 µM
GI50 (SW-620 colon): 13.2 µM
TGI (SW-620 colon): 26.8 µM
GI50 (RXF 393 renal): 2.78 µM
TGI (RXF 393 renal): 9.73 µM

Source: PubChem BioAssay (NCI)
